The text below walks through data of publication PMC11595589, “A Pharmacokinetic and Bioavailability Study of Ecklonia cava Phlorotannins Following Intravenous and Oral Administration in Sprague–Dawley Rats” (Marine Drugs, 2024).

As a reminder, the AUC(0-inf) is the area under the concentration-time curve extrapolated to infinity. The term MRT last denotes a mean duration of stay, worked out from the concentration-time curve. Broadly, the clearance is a measure of how efficiently the substance is removed, as volume per time.

Data set [1] can be described thus: Single-dose pharmacokinetics after IV bolus administration of EK-ECP. Format: in vivo, male Sprague–Dawley rats. To be noted: IV bolus 10 mg/kg EK-ECP; for T1/2 (terminal half-life) / half-life / AUC(0-t) / Vd / AUC(0-inf) / MRT last / C0: mean (CV); for T1/2 (terminal half-life) / half-life / AUC(0-t) / Vd: 10 mg/kg; for Tlast: median (minimum-maximum); for half-life / AUC(0-t) / Vd / AUC(0-inf) / MRT last / C0 / clearance: male, Sprague-Dawley, rat; for half-life / AUC(0-t) / Vd: iv; for clearance: read-out: Mean clearance (Cl) (converted). The procedure:
EK-ECP was administered to male Sprague–Dawley rats by either IV bolus (Group 1, 10 mg/kg) or oral gavage (Groups 2, 3 or 4, at 10, 100 or 1000 mg/kg, respectively) administration. Blood collection intervals were pre dose (0), and 0.25, 0.5, 1, 2, 4, 6, 8, 12, 24 and 36 h post dose. Plasma samples were analyzed for concentrations of 8,8′-bieckol, dieckol, and PFF-A; all pre-dose sample results were less than the lower limit of quantitation (LLOQ < 1 ng/mL). The time profiles of the plasma concentrations of 8,8′-bieckol, dieckol, and PFF-A in individual animals are illustrated in Figure 4. The mean pharmacokinetic parameters and corresponding coefficient of variation (CV) following IV administration of 10 mg/kg EK-ECP to male rats are illustrated in Table 1. Those following oral administrations of 10, 100 and 1000 mg/kg EK-ECP to male rats are illustrated in Table 2.
Total of 20 male CD® [Crl:CD®(SD)] rats (approximately 11.5 weeks of age) obtained from Charles River Laboratories (Portage, MI, USA) were used in our study. These included five rats with both jugular and femoral vein cannulations, and 15 rats with jugular vein cannulations. Of the 20 animals received, 16 male rats were placed in the study, comprising four rats with both jugular and femoral vein cannulations, and 12 rats with jugular vein cannulations. The rats were housed in the Mattawan facility of MPI Research Inc (currently Charles River Laboratories, Mattawan, MI, USA). Animal welfare for this study was in compliance with the U.S. Department of Agriculture’s (USDA) Animal Welfare Act (9 CFR Parts 1, 2 and 3). This facility maintained an animal welfare assurance statement with the National Institutes of Health Office of Laboratory Animal Welfare. All procedures were approved before the study by the institutional animal care utilization committee. Animals were individually housed and fed a basal diet of Lab Diet Certified Rodent Diet #5002, PMI Nutrition International, Inc. Food and water was available ad libitum except during fasting periods, when food was withheld, and during any required restraint periods, when both food and water were withheld. Animal rooms were maintained at (20 ± 2) °C and (50 ± 20)% relative humidity with a 12 h light/dark cycle throughout the study.
For intravenous administration, EK-ECP was dissolved in 70/25/5 (v/v) phosphate-buffered saline (PBS)/propylene glycol/ethanol (pH 5.1 final concentration of 2 mg/mL) and stabilized at room temperature for 24 h. For oral administration, after an amount of EK-ECP appropriate to the final targeted formulation concentrations was weighed and placed in a bottle, a small amount of the vehicle (water for injection) was added and mixed using a vortex mixer and heated to between 60 to 70 °C until homogeneously suspended. Additional amounts of the vehicle were gradually added to yield the targeted EK-ECP concentrations (1, 10, and 100 mg/mL). Dosing occurred within 4 h after preparation completion. The individual constituent doses of dieckol, 8,8′-bieckol, and PFF-A in each dosing formulation were analyzed by RP-HPLC followed by interpolation of the corresponding area% to the calibration curve prepared with known concentrations of isolated standards. The animals were fasted for a minimum of 4 h prior to dosing and through the first 4 h of blood sample collection. Each animal in Group 1 received a single intravenous (IV) dose of the 10 mg/kg EK-ECP. The intravenous doses were administered as a slow bolus injection over 5 min through the femoral vein cannula. The cannula was flushed with approximately 0.3 mL of sterile 0.9% sodium chloride for injection, USP, immediately following dosing. Each animal in Groups 2, 3 and 4 received a single oral (PO) gavage dose of the appropriate test article formulation, as outlined Table 3. Oral gavage dosing formulations were continuously stirred throughout dosing. […]

For data set [2] the following is noted: stated in the discussion without data or reference; cited from earlier work.
Another data set has as its system mouse-model. The arrangement: method as in PMID 16042079. To be noted: oral administration, mouse model ref 64; cited from earlier work.
Data set [3] in a line: Stability at pH 2 by UV–Vis spectroscopy (gastric juice degradation). Type of data set: physicochemical. To be noted: period of at least 5 h, unpublished data. The source says: To address the potential reduction in bioavailability due to degradation by gastric juice, we evaluated the stability of dieckol as a representative compound of phlorotannins at a pH of 2 using UV–Vis spectroscopy.

Another data set deals with gut microbial ecosystem. Particulars: hydroethanolic extract of Silvetia compressa ref 73; cited from earlier work.
[4] abbreviates: plasma, ln(2)·MRTlast, read-out: Effective T1/2 (converted).
The mark [5] stands for this setting: plasma, read-out: T1/2 (terminal half-life) (converted).

Where two headings read alike, the source gives them in different places. Marks after values point to notes of the source that are not given here.

Regarding `Oc1cc(O)cc(Oc2c(O)cc(O)c3c2Oc2c(cc(O)c(-c4c(O)cc5c(c4O)Oc4c(Oc6cc(O)cc(O)c6)c(O)cc(O)c4O5)c2O)O3)c1` [8,8′-bieckol], in data set [1], the “plasma concentrations quantifiable up to” value worked out at 36 h, the “T1/2 (terminal half-life)” value is reported as 9.42 (9) h and the Tlast was 36 (36–36) h. The half-life in data set [1] (in vivo, ln(2)·MRTlast, read-out: Effective T1/2 (converted)) is 1.3 h. The AUC(0-t) in data set [1] (in vivo, read-out: AUC(0–24h)) was 6.54 µg·h/mL. Besides, in data set [1] (in vivo, read-out: AUCTlast), the AUC(0-t) came to 6.62 µg·h/mL. For the same molecule, the half-life in data set [1] (in vivo, read-out: T1/2 (terminal half-life) (converted)) was about 9.42 h. The Vd in data set [1] (in vivo, read-out: Vss) was 0.366 L/kg. The Vd in data set [1] (in vivo, read-out: Vz) was 2.2 L/kg. In addition, in data set [1] (in vivo), the AUC(0-inf) was 6.67 µg·h/mL, the MRT last turned out to be 1.88 h and the clearance was 0.162 L/h/kg. The same molecule displayed a C0 in data set [1] (in vivo, plasma) of 7.22 µg/mL.
`Oc1cc(O)cc(Oc2c(O)cc(O)c3c2Oc2c(O)cc4oc5c(Oc6cc(O)cc(O)c6)c(O)cc(O)c5c4c2O3)c1` [PFF-A, phlorofucofuroeckol-A]: the solubility in water result in data set [2] is listed as “virtually insoluble in water”. Also, in the data set with mouse-model, the “oral dose with CNS-directed effect (as low as)” value was 0.2 mg/kg/bw. In data set [1], the “plasma concentrations quantifiable up to” value worked out at 2 h, the “T1/2 (terminal half-life)” value is given as 0.731 (4) ^c h and the Tlast is on record as 2 (1–2) h. Besides, in data set [1] (setting [4]), the half-life was 0.36 h. For the same molecule, in data set [1] (plasma, read-out: AUC(0–24h)), the AUC(0-t) was 0.00903 µg·h/mL. The AUC(0-t) in data set [1] (plasma, read-out: AUCTlast) was 0.00781 µg·h/mL. Also, the half-life in data set [1] (setting [5]) was about 0.731 h. In addition, the Vd in data set [1] (plasma, read-out: Vss) was 77.6 L/kg. The Vd in data set [1] (plasma, read-out: Vz) stood at 89.2 L/kg. In data set [1] (plasma), the AUC(0-inf) amounted to 0.0101 µg·h/mL, the MRT last is 0.52 h, the clearance is 84 L/h/kg and the C0 was 0.0128 µg/mL.
For the molecule `Oc1cc(O)cc(Oc2c(O)cc(O)c3c2Oc2c(O)cc(Oc4c(O)cc(Oc5c(O)cc(O)c6c5Oc5c(O)cc(O)cc5O6)cc4O)cc2O3)c1` [dieckol], the “oral dose with CNS-directed effect (as low as)” value in the data set on mouse-model is given as 1.0 mg/kg/bw. For the same molecule, the “stability at pH 2” value in data set [3] is on record as “no significant changes”. Besides, in data set [1], the “plasma concentrations quantifiable up to” value is listed as 36 h, the “T1/2 (terminal half-life)” value is 11.9 (7) h and the Tlast is reported as 36 (36–36) h. For the same molecule, in data set [1] (setting [4]), the half-life is 1.48 h. The AUC(0-t) in data set [1] (plasma, read-out: AUC(0–24h)) stood at 5.19 µg·h/mL. The AUC(0-t) in data set [1] (plasma, read-out: AUCTlast) is 5.29 µg·h/mL. For the same molecule, in data set [1] (setting [5]), the half-life was about 11.9 h. Moreover, the Vd in data set [1] (plasma, read-out: Vss) was determined as 0.57 L/kg. For the same molecule, in data set [1] (plasma, read-out: Vz), the Vd turned out to be 3.35 L/kg. Further, in data set [1] (plasma), the total exposure AUC(0-inf) amounted to 5.39 µg·h/mL, the mean residence time MRT last was determined as 2.14 h, the clearance is 0.193 L/h/kg and the C0 turned out to be 8.89 µg/mL. Besides, the metabolism during fermentation result in the data set with gut microbial ecosystem is reported as “metabolized within eight hours of fermentation”.
